Data from patent US20240252581A1, “COMPOSITIONS AND METHODS FOR TREATING RESPIRATORY DISTRESS” (S.I.S. SHULOV INNOVATIVE SCIENCE LTD., priority 2021, published 2024).
Several values for one entry are separate records, joined by “and”; a condition that tells them apart may be missing. Equal entries are not always repeated. Square brackets hold non-standard residues; d marks the D form. Peptide text beside a SMILES is read from it. * marks the point of attachment. pGlu = O=C1CC[C@@H](C(=O)O)N1; Octanoyl = CCCCCCCC(=O)*

Key:
[1] = determined daily during the study
Method: The effect of ZEP3Na administered intratracheally in a mice model of acute respiratory distress syndrome was evaluated. BALB/c mice were anaesthetized and orally intubated with a sterile plastic catheter and challenged with intratracheal instillation of 0.2 mg or 0.8 mg of LPS dissolved in 50 μL of PBS. Naïve mice (without LPS instillation) were injected with the same volume of saline to serve as controls. Six hours following LPS instillation, mice were administered intratracheally with ZEP3Na at two doses, namely 0.1 and 0.4 mg. The study was terminated 72 hours after LPS challenge to collect tissues for analysis.
Animal body weights were determined daily during the study.

[2] = system: inflammatory cytokines in BALF; assay: LPS-induced acute lung injury / ARDS mouse model: BALF cytokine concentrations (multiplex ELISA); format: in vivo, BALB/c mice; conditions: BALF
Method: In order to test the efficacy of ZEP3 sodium on lung inflammation, the lipopolysaccharide (LPS)-induced acute lung injury model was used. In particular, LPS was administered intratracheally at doses of 10 or 40 mg/kg body weight (BW) corresponding to 0.2 or 0.8 mg/mouse, respectively.
ZEP3 sodium was administered by inhalation (INH) at doses of 25 or 250 mg/kg BW (0.5 or 5 mg/mouse, respectively), or intratracheally (IT) at doses of 5 or 20 mg/kg BW (0.1 or 0.4 mg/mouse, respectively) 6 hours after LPS administration and its effect was measured 72 hours following administration in the branchial alveolar fluid (BALF) using FACS instrumentation.
To detect cytokine release in lungs fluid, cytokine concentrations were assessed in BALF samples using high sensitivity multiplex ELISA assays for: IFN-γ, IL-1α, IL-5, IL-6, IL-10, IL-12 (p70), IL-17A, KC, MCP-1, TNF-α, IP-10, RANTES, G-CSF, MIP-1α and RANTES. ZEP3Na administered intratracheally at 0.1 and 0.4 mg per mouse after instillation of 0.2 mg LPS inhibited the concentration of following interleukins: IL-1α, IL-6, IL-10, IL-12, IL-17, KC, MCP-1, TNF-α and G-CSF.

[3] = Group 2: ZEP3Na 0.1 mg IT, no LPS, group mean
[4] = Group 2: ZEP3Na 0.1 mg IT, no LPS, individual mice
[5] = Group 3: ZEP3Na 0.4 mg IT, no LPS, group mean
[6] = Group 3: ZEP3Na 0.4 mg IT, no LPS, individual mice
[7] = Group 4: LPS 0.8 mg + ZEP3Na 0.1 mg IT, group mean
[8] = Group 4: LPS 0.8 mg + ZEP3Na 0.1 mg IT, individual mice
[9] = Group 5: LPS 0.8 mg + ZEP3Na 0.4 mg IT, group mean
[10] = Group 5: LPS 0.8 mg + ZEP3Na 0.4 mg IT, individual mice
[11] = Group 8: LPS 0.2 mg + ZEP3Na 0.1 mg IT, group mean
[12] = Group 8: LPS 0.2 mg + ZEP3Na 0.1 mg IT, individual mice
[13] = Group 9: LPS 0.2 mg + ZEP3Na 0.4 mg IT, group mean

SMILES: CCCCCCCC(=O)NCCCC[C@H](NC(=O)[C@H](Cc1c[nH]c2ccccc12)NC(=O)[C@H](CC(N)=O)NC(=O)[C@@H]1CCC(=O)N1)C(=O)O [ZEP3Na, pGlu-Asn-Trp-Lys(Octanoyl)-ONa] ([pGlu]NWK(Octanoyl)-OH)
- body weight [1]: No major changes
- production of IL-12 and TNF-α ([2]; 0.8 mg LPS treated mice, 0.1 and 0.4 mg): significantly inhibited
- G-CSF [2, 3]: 2.60 pg/mL
- IL-12 (p70) [2, 3]: 7.31 pg/mL
- IL-17A [2, 3]: 0.35 pg/mL
- KC [2, 3]: 59.28 pg/mL
- MCP-1 [2, 3]: 0.00 pg/mL
- G-CSF [2, 4]: 2.37 pg/ml (2×) and 1.99 pg/ml (2×) and 5.06 pg/ml and 2.76 pg/ml (2×) and 3.53 pg/ml and 3.15 pg/ml
- G-CSF (pg/ml) [2, 4]: undetected
- IL-12 (p70) [2, 4]: 9.22 pg/ml (2×) and 9.10 pg/ml and 8.79 pg/ml (2×) and 7.39 pg/ml and 5.38 pg/ml and 4.32 pg/ml and 10.92 pg/ml
- IL-12 (p70) (pg/ml) [2, 4]: undetected
- IL-17A [2, 4]: 0.63 pg/mL and 2.12 pg/mL and 0.73 pg/mL
- IL-17A (pg/ml) [2, 4]: undetected
- KC [2, 4]: 46.08 pg/mL and 58.58 pg/mL and 58.91 pg/mL and 89.58 pg/mL and 95.87 pg/mL and 47.76 pg/mL and 43.47 pg/mL and 64.27 pg/mL and 42.44 pg/mL and 45.89 pg/mL
- MCP-1 (pg/ml) [2, 4]: undetected
- G-CSF [2, 5]: 3.26 pg/mL
- IL-12 (p70) [2, 5]: 7.54 pg/mL
- IL-17A [2, 5]: 1.26 pg/mL
- KC [2, 5]: 70.95 pg/mL
- MCP-1 [2, 5]: 4.89 pg/mL
- G-CSF [2, 6]: 7.65 pg/ml and 3.47 pg/ml (2×) and 2.20 pg/ml (2×) and 6.40 pg/ml and 3.89 pg/ml
- G-CSF (pg/ml) [2, 6]: undetected
- IL-12 (p70) [2, 6]: 8.49 pg/ml (2×) and 7.27 pg/ml and 7.92 pg/ml and 5.27 pg/ml and 9.45 pg/ml and 7.21 pg/ml and 5.22 pg/ml and 8.54 pg/ml
- IL-17A [2, 6]: 2.02 pg/ml and 1.13 pg/ml and 1.36 pg/ml and 1.47 pg/ml and 1.20 pg/ml (2×) and 1.06 pg/ml and 0.73 pg/ml and 1.14 pg/ml
- KC [2, 6]: 56.01 pg/mL and 58.30 pg/mL and 63.33 pg/mL and 62.30 pg/mL and 71.12 pg/mL and 68.10 pg/mL and 52.39 pg/mL and 46.36 pg/mL and 160.65 pg/mL
- MCP-1 [2, 6]: 11.53 pg/ml and 11.29 pg/ml (2×) and 9.93 pg/ml
- MCP-1 (pg/ml) [2, 6]: undetected
- G-CSF [2, 7]: 138.16 pg/mL
- IL-12 (p70) [2, 7]: 124.09 pg/mL
- IL-17A [2, 7]: 837.99 pg/mL
- KC [2, 7]: 466.06 pg/mL
- MCP-1 [2, 7]: 70.18 pg/mL
- G-CSF [2, 8]: 250.42 pg/mL and 141.30 pg/mL and 164.43 pg/mL and 89.05 pg/mL and 416.35 pg/mL and 50.11 pg/mL and 131.80 pg/mL
- G-CSF (pg/ml) [2, 8]: undetected
- IL-12 (p70) [2, 8]: 6.33 pg/mL and 5.38 pg/mL and 235.43 pg/mL and 103.27 pg/mL and 192.86 pg/mL and 41.94 pg/mL and 414.83 pg/mL and 27.99 pg/mL and 88.80 pg/mL
- IL-17A [2, 8]: 1287.47 pg/mL and 55.37 pg/mL and 719.90 pg/mL and 51.28 pg/mL and 5285.06 pg/mL and 77.04 pg/mL and 65.83 pg/mL
- IL-17A (pg/ml) [2, 8]: undetected
- KC [2, 8]: 39.18 pg/mL and 29.08 pg/mL and 847.35 pg/mL and 522.41 pg/mL and 798.01 pg/mL and 253.77 pg/mL and 831.88 pg/mL and 234.34 pg/mL and 638.49 pg/mL
- MCP-1 [2, 8]: 70.21 pg/mL and 76.09 pg/mL and 93.90 pg/mL and 58.01 pg/mL and 114.01 pg/mL and 53.91 pg/mL and 165.51 pg/mL
- MCP-1 (pg/ml) [2, 8]: undetected
- G-CSF [2, 9]: 190.32 pg/mL
- IL-12 (p70) [2, 9]: 102.59 pg/mL
- IL-17A [2, 9]: 204.85 pg/mL
- KC [2, 9]: 773.23 pg/mL
- MCP-1 [2, 9]: 190.69 pg/mL
- G-CSF [2, 10]: 491.06 pg/mL and 209.62 pg/mL and 268.52 pg/mL and 300.90 pg/mL and 7.65 pg/mL and 3.47 pg/mL and 124.37 pg/mL and 116.99 pg/mL
- IL-12 (p70) [2, 10]: 7.58 pg/mL and 215.64 pg/mL and 368.44 pg/mL and 12.63 pg/mL and 7.60 pg/mL and 194.02 pg/mL and 14.83 pg/mL
- IL-12 (p70) (pg/ml) [2, 10]: undetected
- IL-17A [2, 10]: 7.23 pg/mL and 265.69 pg/mL and 1207.05 pg/mL and 13.05 pg/mL and 2.04 pg/mL and 0.52 pg/mL and 136.95 pg/mL and 6.24 pg/mL
- KC [2, 10]: 1115.74 pg/mL and 1099.42 pg/mL and 1195.30 pg/mL and 488.61 pg/mL and 54.20 pg/mL and 57.06 pg/mL and 981.92 pg/mL and 1193.59 pg/mL
- MCP-1 [2, 10]: 810.24 pg/mL and 166.84 pg/mL and 79.29 pg/mL and 307.60 pg/mL and 15.45 pg/mL and 83.52 pg/mL and 62.54 pg/mL
- MCP-1 (pg/ml) [2, 10]: undetected
- G-CSF [2, 11]: 187.95 pg/mL
- IL-12 (p70) [2, 11]: 264.97 pg/mL
- IL-17A [2, 11]: 724.27 pg/mL
- KC [2, 11]: 1023.71 pg/mL
- MCP-1 [2, 11]: 133.24 pg/mL
- G-CSF [2, 12]: 175.22 pg/mL and 144.90 pg/mL and 109.99 pg/mL and 383.77 pg/mL and 239.49 pg/mL and 199.64 pg/mL and 249.05 pg/mL and 93.60 pg/mL and 177.33 pg/mL and 106.48 pg/mL
- IL-12 (p70) [2, 12]: 247.16 pg/mL and 386.37 pg/mL and 66.34 pg/mL and 199.27 pg/mL and 322.18 pg/mL and 422.04 pg/mL and 317.94 pg/mL and 97.45 pg/mL and 202.28 pg/mL and 388.69 pg/mL
- IL-17A [2, 12]: 553.70 pg/mL and 1615.14 pg/mL and 285.28 pg/mL and 1776.16 pg/mL and 862.84 pg/mL and 989.92 pg/mL and 458.49 pg/mL and 111.01 pg/mL and 281.41 pg/mL and 308.73 pg/mL
- KC [2, 12]: 782.52 pg/mL and 1528.47 pg/mL and 503.00 pg/mL and 672.71 pg/mL and 1548.79 pg/mL and 1057.28 pg/mL and 1346.32 pg/mL and 808.21 pg/mL and 1086.03 pg/mL and 903.77 pg/mL
- MCP-1 [2, 12]: 107.46 pg/mL and 158.19 pg/mL and 142.05 pg/mL and 85.01 pg/mL and 91.65 pg/mL and 135.00 pg/mL and 216.90 pg/mL and 114.81 pg/mL and 109.95 pg/mL and 171.38 pg/mL
- G-CSF [2, 13]: 172.12 pg/mL
- IL-12 (p70) [2, 13]: 161.01 pg/mL
